From patent US11547681B2, “N-acylethanolamide derivatives and uses thereof” (ELIEM THERAPEUTICS, INC., priority 2016, dated 2023)

Assay: in vitro
Settings: male; for Measured concentration of PEA (analyte) / % Remaining of Initial / Measured concentration of analyte PEA, 0 min / Measured concentration of analyte PEA, 10 min / Measured concentration of analyte PEA, 20 min / Measured concentration of analyte PEA, 30 min / Measured concentration of analyte PEA, 60 min / % Remaining of Initial, 0 min / % Remaining of Initial, 10 min / % Remaining of Initial, 20 min / % Remaining of Initial, 30 min / % Remaining of Initial, 60 min: 1 μM; for % Remaining of Initial / microsomal CLint at 1 μM / half-life at 1 μM / % Remaining of Initial, 0 min / % Remaining of Initial, 10 min / % Remaining of Initial, 20 min / % Remaining of Initial, 30 min / % Remaining of Initial, 60 min: microsomes
Experimental: (§1) Reaction mixture, minus cofactors, was prepared as described below. Test article was added into the reaction mixture at a final concentration of 1 μM. […] An aliquot of the reaction mixture (without cofactor) was equilibrated in a shaking water bath at 37° C. for 3 minutes. The reaction was initiated by the addition of cofactor, and the mixture was incubated in a shaking water bath at 37° C. Aliquots (100 μL) were withdrawn at 0, 10, 20, 30, and 60 minutes. Test article samples were immediately combined with 300 μL of ice-cold acetonitrile containing 1% formic acid. Control samples were immediately combined with 400 μL of ice-cold 50/50 acetonitrile (ACN)/dH2O containing 0.1% formic acid and internal standard to terminate the reaction. Samples were then mixed and centrifuged to precipitate proteins. Calibration standards were prepared in matched matrix. Samples and standards were assayed by LC-MS/MS using electrospray ionization for both dosed prodrug and expected drug (PEA). Analytical conditions are outlined in Appendix 8-1. Test article concentration at each time point was compared to test article concentration at time 0 to determine the percent remaining at each time point. Half-lives were calculated using GraphPad software, fitting to a single-phase exponential decay equation.
Reaction mixture, minus cofactors, was prepared as described below. Test article was added into the reaction mixture at a final concentration of 1 μM. […] An aliquot of the reaction mixture (without cofactor) was equilibrated in a shaking water bath at 37° C. for 5 minutes. Reaction was initiated by the addition of cofactor, and the mixture was incubated in a shaking water bath at 37° C. Aliquots (100 μL) were withdrawn at 0, 10, 20, 30, and 60 minutes. Test article samples were immediately combined with 300 μL of ice-cold acetonitrile containing 1% formic acid. Control samples were immediately combined with 400 μL of ice-cold 50/50 acetonitrile (ACN)/dH2O containing 0.1% formic acid and internal standard to terminate the reaction. Samples were then mixed and centrifuged to precipitate proteins. Calibration standards were prepared in matched matrix. Samples and standards were assayed by LC-MS/MS using electrospray ionization for both the dosed prodrug and the expected drug (PEA). Analytical conditions are outlined in Appendix 10-1. Test article concentration at each time point was compared to the test article concentration at time 0 to determine the percent remaining at each time point. Half-lives were calculated using GraphPad software, fitting to a single-phase exponential decay equation.
as §1, with “minutes. Reaction” for “minutes. The reaction”, “300 μL,” for “300 μL”, “Appendix 13-1.” for “Appendix 8-1.”
Reaction mixture, minus cofactors, was prepared as described below.

[1] = Beagle, dog, calculated value in parentheses
[2] = CD-1, mouse, calculated value in parentheses

CCCCCCCCCCCCCCCC(=O)NCCOC(=O)CCC(=O)OC(CO)CO [Compound I-8]
Measured concentration of PEA (analyte) (Beagle, dog, 0 min): 0.33 µM | Measured concentration of PEA (analyte) (Beagle, dog, 10 min): 0.54 µM | Measured concentration of PEA (analyte) (Beagle, dog, 20 min): 0.46 µM | Measured concentration of PEA (analyte) (Beagle, dog, 30 min): 0.44 µM | Measured concentration of PEA (analyte) (Beagle, dog, 60 min): 0.20 µM | % Remaining of Initial (Beagle, dog, 0 h): 100% | % Remaining of Initial (Beagle, dog, 10 min): <1.0% | % Remaining of Initial (Beagle, dog, 20 min): <1.0% | % Remaining of Initial (Beagle, dog, 0.5 h): <1.0% | % Remaining of Initial (Beagle, dog, 1 h): <1.0% | microsomal CLint at 1 μM (Beagle, dog): > 1380 µL/min/mg | half-life at 1 μM (Beagle, dog): < 1 min | Measured concentration of PEA (analyte) (CD-1, mouse, 0 min): 0.45 µM | Measured concentration of PEA (analyte) (CD-1, mouse, 10 min): 0.30 µM | Measured concentration of PEA (analyte) (CD-1, mouse, 20 min): 0.15 µM | Measured concentration of PEA (analyte) (CD-1, mouse, 30 min): 0.086 µM | Measured concentration of PEA (analyte) (CD-1, mouse, 60 min): 0 µM | % Remaining of Initial (CD-1, mouse, 0 h): 100% | % Remaining of Initial (CD-1, mouse, 10 min): <1.0% | % Remaining of Initial (CD-1, mouse, 20 min): <1.0% | % Remaining of Initial (CD-1, mouse, 0.5 h): <1.0% | % Remaining of Initial (CD-1, mouse, 1 h): <1.0% | microsomal CLint at 1 μM (CD-1, mouse): > 1380 µL/min/mg | half-life at 1 μM (CD-1, mouse): < 1 min

CCCCCCCCCCCCCCCC(=O)NCCOC(=O)CCC(=O)OC(COC(=O)CCC)COC(=O)CCC [Compound I-16]
Measured concentration of PEA (analyte) (Beagle, dog, 0 min): 0.053 µM | Measured concentration of PEA (analyte) (Beagle, dog, 10 min): 0.59 µM | Measured concentration of PEA (analyte) (Beagle, dog, 20 min): 0.48 µM | Measured concentration of PEA (analyte) (Beagle, dog, 30 min): 0.43 µM | Measured concentration of PEA (analyte) (Beagle, dog, 60 min): 0.20 µM | % Remaining of Initial (Beagle, dog, 0 h): 100% | % Remaining of Initial (Beagle, dog, 10 min): 4.4% | % Remaining of Initial (Beagle, dog, 20 min): 1.6% | % Remaining of Initial (Beagle, dog, 0.5 h): 1.4% | % Remaining of Initial (Beagle, dog, 1 h): 1.5% | microsomal CLint at 1 μM (Beagle, dog): > 139 µL/min/mg | microsomal CLint at 1 μM [1]: 618 µL/min/mg | half-life at 1 μM (Beagle, dog): < 10 min | half-life at 1 μM [1]: 2.2 min | Measured concentration of PEA (analyte) (CD-1, mouse, 0 min): 0.29 µM | Measured concentration of PEA (analyte) (CD-1, mouse, 10 min): 0.27 µM | Measured concentration of PEA (analyte) (CD-1, mouse, 20 min): 0.12 µM | Measured concentration of PEA (analyte) (CD-1, mouse, 30 min): 0.089 µM | Measured concentration of PEA (analyte) (CD-1, mouse, 60 min): 0.0093 µM | % Remaining of Initial (CD-1, mouse, 0 h): 100% | % Remaining of Initial (CD-1, mouse, 10 min): 7.6% | % Remaining of Initial (CD-1, mouse, 20 min): 3.0% | % Remaining of Initial (CD-1, mouse, 0.5 h): 2.1% | % Remaining of Initial (CD-1, mouse, 1 h): 1.8% | microsomal CLint at 1 μM (CD-1, mouse): > 139 µL/min/mg | microsomal CLint at 1 μM [2]: 503 µL/min/mg | half-life at 1 μM (CD-1, mouse): < 10 min | half-life at 1 μM [2]: 2.8 min

CCCCCCCCCCCCCCCC(=O)NCCOC(=O)CCC(=O)OC[C@H]1O[C@@](CO)(O[C@H]2O[C@H](CO)[C@@H](O)[C@H](O)[C@H]2O)[C@@H](O)[C@@H]1O [Compound I-7]
Measured concentration of analyte PEA, 0 min (Beagle, dog, 0 min): 0.59 µM | Measured concentration of analyte PEA, 10 min (Beagle, dog, 10 min): 0.50 µM | Measured concentration of analyte PEA, 20 min (Beagle, dog, 20 min): 0.47 µM | Measured concentration of analyte PEA, 30 min (Beagle, dog, 30 min): 0.38 µM | Measured concentration of analyte PEA, 60 min (Beagle, dog, 60 min): 0.20 µM | % Remaining of Initial, 0 min (Beagle, dog, 0 h): 100% | % Remaining of Initial, 10 min (Beagle, dog, 10 min): 1.6% | % Remaining of Initial, 20 min (Beagle, dog, 20 min): 1.4% | % Remaining of Initial, 30 min (Beagle, dog, 0.5 h): 1.3% | % Remaining of Initial, 60 min (Beagle, dog, 1 h): <1.0% | microsomal CLint at 1 μM (Beagle, dog): 823 µL/min/mg | half-life at 1 μM (Beagle, dog): 1.7 min | Measured concentration of analyte PEA, 0 min (CD-1, mouse, 0 min): 0.28 µM | Measured concentration of analyte PEA, 10 min (CD-1, mouse, 10 min): 0.29 µM | Measured concentration of analyte PEA, 20 min (CD-1, mouse, 20 min): 0.18 µM | Measured concentration of analyte PEA, 30 min (CD-1, mouse, 30 min): 0.11 µM | Measured concentration of analyte PEA, 60 min (CD-1, mouse, 60 min): 0.034 µM | % Remaining of Initial, 0 min (CD-1, mouse, 0 h): 100% | % Remaining of Initial, 10 min (CD-1, mouse, 10 min): 1.7% | % Remaining of Initial, 20 min (CD-1, mouse, 20 min): 1.2% | % Remaining of Initial, 30 min (CD-1, mouse, 0.5 h): <1.0% | % Remaining of Initial, 60 min (CD-1, mouse, 1 h): <1.0% | microsomal CLint at 1 μM (CD-1, mouse): 814 µL/min/mg | half-life at 1 μM (CD-1, mouse): 1.7 min

CCCCCCCCCCCCCCCC(=O)NCCOC(=O)CCC [Compound I-2]
Measured concentration of analyte PEA, 0 min (Beagle, dog, 0 min): 0.23 µM | Measured concentration of analyte PEA, 10 min (Beagle, dog, 10 min): 0.48 µM | Measured concentration of analyte PEA, 20 min (Beagle, dog, 20 min): 0.38 µM | Measured concentration of analyte PEA, 30 min (Beagle, dog, 30 min): 0.29 µM | Measured concentration of analyte PEA, 60 min (Beagle, dog, 60 min): 0.17 µM | % Remaining of Initial, 0 min (Beagle, dog, 0 h): 100% | % Remaining of Initial, 10 min (Beagle, dog, 10 min): 5.4% | % Remaining of Initial, 20 min (Beagle, dog, 20 min): <1.0% | % Remaining of Initial, 30 min (Beagle, dog, 0.5 h): <1.0% | % Remaining of Initial, 60 min (Beagle, dog, 1 h): <1.0% | microsomal CLint at 1 μM (Beagle, dog): 581 µL/min/mg | half-life at 1 μM (Beagle, dog): 2.4 min | Measured concentration of analyte PEA, 0 min (CD-1, mouse, 0 min): 0.48 µM | Measured concentration of analyte PEA, 10 min (CD-1, mouse, 10 min): 0.34 µM | Measured concentration of analyte PEA, 20 min (CD-1, mouse, 20 min): 0.19 µM | Measured concentration of analyte PEA, 30 min (CD-1, mouse, 30 min): 0.12 µM | Measured concentration of analyte PEA, 60 min (CD-1, mouse, 60 min): 0.023 µM | % Remaining of Initial, 0 min (CD-1, mouse, 0 h): 100% | % Remaining of Initial, 10 min (CD-1, mouse, 10 min): <1.0% | % Remaining of Initial, 20 min (CD-1, mouse, 20 min): <1.0% | % Remaining of Initial, 30 min (CD-1, mouse, 0.5 h): <1.0% | % Remaining of Initial, 60 min (CD-1, mouse, 1 h): <1.0% | microsomal CLint at 1 μM (CD-1, mouse): > 1380 µL/min/mg | half-life at 1 μM (CD-1, mouse): < 1 min
